# Assay: recombinant UMI read abundance after kanamycin selection (control-corrected) (log10(CPM+1)); higher = more efficient recombination; extreme values may be limits of the assay; sequences stand for … in AGTGCAGAGAAAATCGGCCAGTTTTCTCTGCCTGCAGTCCGCATGCCGTGGGACCCCTTGGGTTCTAACCTGTTGCCTAGATTTATGCAGCGGACTGCCTTTCTCCCAAAGTGATAAACCGG…AGGTTGGTTTCACT; site = the 11-nt donor
# Outline: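 Two replicates each of selected and unselected plating were used in this pooled Escherichia coli screen of donor and donor-binding-loop pairs for the IS621 bridge recombinase. Selection was with IPTG (0.07 mM) and kanamycin. Counts of recombinant UMIs, amplified across the donor–target junction, were converted to CPM, averaged, scaled by control-derived factors and reported as log10(CPM+1).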
# 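Further: IS621 bridge recombinase in Escherichia coli cells against a fixed T5 target plasmid.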
row,Sequence,recombinant UMI read abundance (log10)
1,GCTTGGCCATGGACCGGTTTTCCCGGTAATCCGTATTTGAT (site GCTTGCCCTAT),0.00795
2,GCTTGGCCATGGACCGGTTTTCCCGGTAATCCGTATTTGAT (site GCTTGGCCTAT),0
3,GCTTGGCCATGGACCGGTTTTCCCGGTAATCCGTATTTGAT (site GCTTGTCCTAT),0.00708
4,GCTTGTACATGGACCGGTTTTCCCGGTAATCCGTATTTGGT (site GCTTGTACTAC),1.08
5,GCTTTAACATGGACCGGTTTTCCCGGTAATCCGTATTTGCT (site GCTTTAACTAG),0.0522
6,GCTTTCCCATGGACCGGTTTTCCCGGTAATCCGTATTTGAT (site GCTTACCCTAT),0
7,GCTTTCCCATGGACCGGTTTTCCCGGTAATCCGTATTTGAT (site GCTTCCCCTAT),0.00917
8,GCTTTCCCATGGACCGGTTTTCCCGGTAATCCGTATTTGAT (site GCTTGCCCTAT),0.00235
9,GCTTTCCCATGGACCGGTTTTCCCGGTAATCCGTATTTGAT (site GCTTTCCCTAT),0.343
10,GGAAACTCATGGACCGGTTTTCCCGGTAATCCGTATTTGTC (site GGAAACTCTGA),2.42
11,GGAAAGACATGGACCGGTTTTCCCGGTAATCCGTATTTGCC (site GGAAAGACTGG),1.64
12,GGAAAGACATGGACCGGTTTTCCCGGTAATCCGTATTTGCC (site GGACAGACTGG),0
13,GGAAAGACATGGACCGGTTTTCCCGGTAATCCGTATTTGCC (site GGAGAGACTGG),0.347
14,GGAAAGACATGGACCGGTTTTCCCGGTAATCCGTATTTGCC (site GGATAGACTGG),0
15,GGAAAGGCATGGACCGGTTTTCCCGGTAATCCGTATTTGCT (site AGAAAGGCTAG),1.75
16,GGAAAGGCATGGACCGGTTTTCCCGGTAATCCGTATTTGCT (site CGAAAGGCTAG),1.06
17,GGAAAGGCATGGACCGGTTTTCCCGGTAATCCGTATTTGCT (site GGAAAGGCTAG),2.39
18,GGAAAGGCATGGACCGGTTTTCCCGGTAATCCGTATTTGCT (site TGAAAGGCTAG),1.25
19,GGAACAGCATGGACCGGTTTTCCCGGTAATCCGTATTTGCC (site GGAACAGCTGG),3.09
20,GGAACATCATGGACCGGTTTTCCCGGTAATCCGTATTTGCT (site CGATCATCTAG),0
21,GGAACATCATGGACCGGTTTTCCCGGTAATCCGTATTTGCT (site GGAACATCTAG),2.03
22,GGAACTTCATGGACCGGTTTTCCCGGTAATCCGTATTTGGC (site GGAACTTCTGC),1.94
23,GGAAGATCATGGACCGGTTTTCCCGGTAATCCGTATTTGAA (site GGAAGATCTTT),2.06

row,Sequence,recombinant UMI read abundance (log10)
1,GGACACCCATGGACCGGTTTTCCCGGTAATCCGTATTTGTT (site GGACACCCTAA),0.444
2,GGACACCCATGGACCGGTTTTCCCGGTAATCCGTATTTGTT (site GGCCACCCTAA),0.011
3,GGACACCCATGGACCGGTTTTCCCGGTAATCCGTATTTGTT (site GGGCACCCTAA),0.0209
4,GGACACCCATGGACCGGTTTTCCCGGTAATCCGTATTTGTT (site GGTCACCCTAA),0.00995
5,GGACACGCATGGACCGGTTTTCCCGGTAATCCGTATTTGAC (site GGACACGCTGT),2.38
6,GGACGCGCATGGACCGGTTTTCCCGGTAATCCGTATTTGGA (site GGACGCGCTTC),0.00923
7,GGACGGCCATGGACCGGTTTTCCCGGTAATCCGTATTTGCG (site GGACGGCCTCG),0.137
8,GGACTAGCATGGACCGGTTTTCCCGGTAATCCGTATTTGTA (site GGACTAGCTTA),2.56
9,GGAGACACATGGACCGGTTTTCCCGGTAATCCGTATTTGTC (site GGAGACACTGA),2.59
10,GGAGCATCATGGACCGGTTTTCCCGGTAATCCGTATTTGAA (site GGAGCATCTTT),1.8
11,GGAGGCCCATGGACCGGTTTTCCCGGTAATCCGTATTTGAT (site GGAGGCCCTAT),0.727
12,GGAGGGCCATGGACCGGTTTTCCCGGTAATCCGTATTTGGC (site GGAGGGCCTGC),0
13,GGAGGTACATGGACCGGTTTTCCCGGTAATCCGTATTTGCG (site GGAGGTACTCG),1.31
14,GGAGTCGCATGGACCGGTTTTCCCGGTAATCCGTATTTGGT (site GGAGTAGCTAC),0.278
15,GGAGTCGCATGGACCGGTTTTCCCGGTAATCCGTATTTGGT (site GGAGTCGCTAC),0.854
16,GGAGTCGCATGGACCGGTTTTCCCGGTAATCCGTATTTGGT (site GGAGTGGCTAC),0.0282
17,GGAGTCGCATGGACCGGTTTTCCCGGTAATCCGTATTTGGT (site GGAGTTGCTAC),0.00431
18,GGAGTGACATGGACCGGTTTTCCCGGTAATCCGTATTTGGT (site GGAGTGACTAC),0.736
19,GGAGTGACATGGACCGGTTTTCCCGGTAATCCGTATTTGGT (site GGAGTGCCTAC),0.00536
20,GGAGTGACATGGACCGGTTTTCCCGGTAATCCGTATTTGGT (site GGAGTGGCTAC),0.259
21,GGAGTGACATGGACCGGTTTTCCCGGTAATCCGTATTTGGT (site GGAGTGTCTAC),0.92
22,GGAGTGGCATGGACCGGTTTTCCCGGTAATCCGTATTTGCT (site GGAGTGGCTAA),0.463
23,GGAGTGGCATGGACCGGTTTTCCCGGTAATCCGTATTTGCT (site GGAGTGGCTAC),0.163

row,Sequence,recombinant UMI read abundance (log10)
1,GGAGTGGCATGGACCGGTTTTCCCGGTAATCCGTATTTGCT (site GGAGTGGCTAG),2.36
2,GGAGTGGCATGGACCGGTTTTCCCGGTAATCCGTATTTGCT (site GGAGTGGCTAT),0.809
3,GGAGTGGCATGGACCGGTTTTCCCGGTAATCCGTATTTGGC (site GGAGTGGCTAC),0.502
4,GGAGTGGCATGGACCGGTTTTCCCGGTAATCCGTATTTGGC (site GGAGTGGCTCC),0.101
5,GGAGTGGCATGGACCGGTTTTCCCGGTAATCCGTATTTGGC (site GGAGTGGCTGC),2
6,GGAGTGGCATGGACCGGTTTTCCCGGTAATCCGTATTTGGC (site GGAGTGGCTTC),0.328
7,GGAGTGGCATGGACCGGTTTTCCCGGTAATCCGTATTTGGT (site AGAGTGGCTAC),0.902
8,GGAGTGGCATGGACCGGTTTTCCCGGTAATCCGTATTTGGT (site CGAGTGGCTAC),0.437
9,GGAGTGGCATGGACCGGTTTTCCCGGTAATCCGTATTTGGT (site GAAGTGGCTAC),0.126
10,GGAGTGGCATGGACCGGTTTTCCCGGTAATCCGTATTTGGT (site GCAGTGGCTAC),0.497
11,GGAGTGGCATGGACCGGTTTTCCCGGTAATCCGTATTTGGT (site GGAATGGCTAC),0.749
12,GGAGTGGCATGGACCGGTTTTCCCGGTAATCCGTATTTGGT (site GGACTGGCTAC),0.0487
13,GGAGTGGCATGGACCGGTTTTCCCGGTAATCCGTATTTGGT (site GGAGAGGCTAC),0.524
14,GGAGTGGCATGGACCGGTTTTCCCGGTAATCCGTATTTGGT (site GGAGCGGCTAC),0.00445
15,GGAGTGGCATGGACCGGTTTTCCCGGTAATCCGTATTTGGT (site GGAGGGGCTAC),0.461
16,GGAGTGGCATGGACCGGTTTTCCCGGTAATCCGTATTTGGT (site GGAGTAGCTAC),0.606
17,GGAGTGGCATGGACCGGTTTTCCCGGTAATCCGTATTTGGT (site GGAGTCGCTAC),0.014
18,GGAGTGGCATGGACCGGTTTTCCCGGTAATCCGTATTTGGT (site GGAGTGACTAC),0.976
19,GGAGTGGCATGGACCGGTTTTCCCGGTAATCCGTATTTGGT (site GGAGTGCCTAC),0.377
20,GGAGTGGCATGGACCGGTTTTCCCGGTAATCCGTATTTGGT (site GGAGTGGCTAA),0.0703
21,GGAGTGGCATGGACCGGTTTTCCCGGTAATCCGTATTTGGT (site GGAGTGGCTAC),0.575
22,GGAGTGGCATGGACCGGTTTTCCCGGTAATCCGTATTTGGT (site GGAGTGGCTAG),1.26

# From the supplement of paper PMC11208160
